Laboratory results: publication PMC6466480 (Journal of Medicinal Chemistry, 2019)

Tests used:
human D4R = target: T1, human D4R (Homo sapiens, UniProt P21917); assay: cAMP inhibition assay; format: cell-based; conditions: read-out: Emax at D4R (partial agonist)
T1 sequence (P21917 1-419): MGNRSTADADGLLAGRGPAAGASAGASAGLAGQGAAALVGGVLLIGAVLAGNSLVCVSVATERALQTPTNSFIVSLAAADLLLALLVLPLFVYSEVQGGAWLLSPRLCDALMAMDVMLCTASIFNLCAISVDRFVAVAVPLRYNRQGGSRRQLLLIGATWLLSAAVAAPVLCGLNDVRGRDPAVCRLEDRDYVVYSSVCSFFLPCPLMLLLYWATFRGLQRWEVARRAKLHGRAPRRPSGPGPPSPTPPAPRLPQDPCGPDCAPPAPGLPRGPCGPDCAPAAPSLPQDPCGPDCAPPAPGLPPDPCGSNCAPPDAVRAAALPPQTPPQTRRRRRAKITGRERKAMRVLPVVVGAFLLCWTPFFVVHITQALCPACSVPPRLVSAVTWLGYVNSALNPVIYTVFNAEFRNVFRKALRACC

human D3R = human D3R (Homo sapiens, UniProt P35462); assay: β-Arrestin recruitment assay; format: cell-based; conditions: agonist mode; percentage of the maximum dopamine response; CHO-K1
human D3R, sequence (P35462 whole entry): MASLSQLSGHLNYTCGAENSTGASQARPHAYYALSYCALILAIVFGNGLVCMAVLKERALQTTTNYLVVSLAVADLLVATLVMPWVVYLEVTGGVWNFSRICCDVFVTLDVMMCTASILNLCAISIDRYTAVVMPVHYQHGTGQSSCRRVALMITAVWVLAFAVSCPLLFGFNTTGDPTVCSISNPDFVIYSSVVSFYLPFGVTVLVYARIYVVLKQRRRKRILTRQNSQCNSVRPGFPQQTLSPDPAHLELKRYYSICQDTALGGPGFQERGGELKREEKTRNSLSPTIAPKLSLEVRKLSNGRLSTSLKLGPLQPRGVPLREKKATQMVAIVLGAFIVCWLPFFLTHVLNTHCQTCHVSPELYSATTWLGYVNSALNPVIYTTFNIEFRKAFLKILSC

D4R = conditions: initially characterized as a full agonist; cited from earlier work

Emax (human D4R): 23 to 62% | D3R efficacy β-arr Emax (human D3R): very low potency and efficacy
SMILES: Cc1cccc(NC(=O)CN2CCC(c3ccccn3)CC2)c1 [Compound 1, 2-(4-(pyridin-2-yl)piperidin-1-yl)-N-(m-tolyl)acetamide]
intrinsic activity at D4R (D4R): 83%
